Source: patent publication US9173823B2, “Preparation for sun protection” (INSTITUT BIOPHYTIS SAS, priority 2009, dated 2015)

Legend:
[1] = cell-free, xanthine/xanthine oxidase system; cited from earlier work
human skin explants = experiment: Sunburn cell (SBC) count in UV-irradiated human skin explants; format: cell-based; details: for reduction of the number of SBC in the epidermis compared to the untreated and irradiated skin: 7 days of treatment, UV irradiation; for reduction of the number of SBC in the epidermis compared to the untreated and irradiated skin / Number of SBC per cm, Irradiated, Average: P1 330 ng·mL-1, P2 and P3 15.5 ng·mL-1; for Number of SBC per cm, Irradiated, Average: UVB 0.30 J/cm^2 and UVA 9 J/cm^2 on day 7, collection 24 hours after irradiation; for Number of SBC per cm, Unirradiated, Mean: unirradiated explants, day 8, P1 330 ng·mL-1, P2 and P3 15.5 ng·mL-1 in medium from day 0
Method: 3. Experimental Study of the Effect of a Bixin-Enriched Urucum Extract, of Bixin and of Norbixin (FIG. 1). Following treatment and UV-B irradiation of human skin explants, a Masson trichrome staining allows the visualization and counting of SBC. 3.1 Tested Products: • P1: urucum organic extract titrated at 6% bixin (330 ng·mL-1) • P2: pure bixin (15.5 ng·mL-1) • P3: pure norbixin (15.5 ng·mL-1) 27 explants (3 per condition) with a diameter of 10 mm were prepared from an abdominoplasty. The explants were cultured at 37° C. in a humid atmosphere containing 5% CO2. These explants were divided into nine (9) batches as follows: Urucum extract was dissolved in DMSO. The three products were added to the medium on the first day (D0), in order to achieve the desired final concentrations. The final amount of DMSO in the medium still remained below 1%. The explants of the control batch received no treatment. On day 7, the explants were exposed to UVB at a dose of 0.30 J/cm^2 and UVA at a dose of 9 J/cm^2. Non-irradiated batches were placed in the dark during the whole irradiation time. Immediately after irradiation, the explants were put back into culture medium. At day 8, i.e. 24 hours after irradiation, the three explants from each batch were taken and processed in the same way. After 48 hours of fixation in Bouin's fixative, samples were dried and impregnated in paraffin using a Leica 1020 automated dehydration controller. Microscopic observations were made by optical microscopy using a Leica DMLB model, with the ×40 lens. Observation of the morphology was performed on paraffin sections after staining with Goldner's variant of Masson's trichrome. Sunburn cells (SBC) were counted throughout each epidermis. The length of each epidermis was measured using the measurement module of the Leica IM1000 and the number of SBC per cm of skin was then calculated.

[2] = after ingestion of an oily annatto solution containing 16 mg bixin, cited from earlier work; for time for which the plasma concentration was observed: norbixin above 25 ng·mL^−1, bixin at 10 ng·mL^−1
plasmid DNA = details: norbixin 10 μM, 10 μM H2O2, Sn^2+ or Fe^2+ ions; cited from earlier work
E. coli = details: UV-radiation in the presence of H2O2 or superoxide anion; cited from earlier work
SOS system = details: in the presence of norbixin; cited from earlier work
Salmonella typhimurium = details: cited from earlier work
[3] = bixin in an extract standardized at 92% bixin; norbixin for an extract standardized at 91% of norbixin; cited from earlier work
chromosomal damage = details: mice, oral, 200 mg per kilogram of body weight before γ-irradiation (1.5-3.0 Gy); cited from earlier work
[4] = orally administered prior to chemotherapy; cited from earlier work
[5] = single dose of 120 mg or daily dose of 90 mg over 23 days; cited from earlier work

SMILES	superoxide scavenging ability, decreasing order [1]	reduction of the number of SBC in the epidermis compared to the untreated and irradiated skin (human skin explants)	Number of SBC per cm, Irradiated, Average (human skin explants)	Number of SBC per cm, Unirradiated, Mean (human skin explants)	plasma concentration [2]	time for which the plasma concentration was observed [2]	daily acceptable dose (JECFA) [3]	further results
CC1=C(/C=C/C(C)=C/C=C/C(C)=C/C=C/C=C(C)/C=C/C=C(C)/C=C/C2=C(C)C(=O)CCC2(C)C)C(C)(C)CCC1=O [canthaxanthin]	canthaxanthin>bixin>lutein>β-carotene							
CC(/C=C/C=C(C)/C=C/C(=O)O)=C\C=C\C=C(C)\C=C\C=C(C)\C=C\C(=O)O (stereo in doubt) [P3, norbixin]		84.4%	25.5 per cm	0.3 per cm	higher than 25 ng·mL^−1	more than 6 hours	0.6 mg/kg	protection of plasmid DNA against breaks (plasmid DNA): protect plasmid DNA; increase of survival of bacteria (factor) (E. coli): 10; reduction of the UV-C induced SOS system (SOS system): 2.3 times; reduction of the mutagenic effect of H2O2 (Salmonella typhimurium): 87%
CC1=C[C@H](O)CC(C)(C)[C@H]1/C=C/C(C)=C/C=C/C(C)=C/C=C/C=C(C)/C=C/C=C(C)/C=C/C1=C(C)C[C@@H](O)CC1(C)C [lutein]	canthaxanthin>bixin>lutein>β-carotene							
COC(=O)/C=C/C(C)=C\C=C\C(C)=C\C=C\C=C(C)\C=C\C=C(C)\C=C\C(=O)O [P2, bixin]	canthaxanthin>bixin>lutein>β-carotene	74.4%	41.9 per cm	0.3 per cm	10 ng/mL	less than 4 hours	12 mg/kg	chromosomal damage, micronucleus test (chromosomal damage): reduced the occurrence of chromosomal damage; effect on side-effects of chemotherapy [4]: reduce the side-effects of chemotherapy
CC1=C(/C=C/C(C)=C/C=C/C(C)=C/C=C/C=C(C)/C=C/C=C(C)/C=C/C2=C(C)CCCC2(C)C)C(C)(C)CCC1 [β-carotene]	canthaxanthin>bixin>lutein>β-carotene							protective effect against sun [5]: ineffective
